In data set [1] the test system is NIH/3T3. In words: Antiproliferative MTT assay. It counts as cell-based, murine. As to conditions: 30 μM pure natural product, 72 h. The method, then:
(§1) For the determination of the antiproliferative properties of the prepared extract and selected alkaloids (isopteropodine, mitraphylline, and uncarine D), an MTT assay was applied on our […] cell panel (see Table S4). […] All were maintained in a minimal essential medium completed with 10% fetal bovine serum, 1% non-essential amino acids, and 1% penicillin–streptomycin at 37 °C in a humidified atmosphere containing 5% CO2. All cell lines were purchased from the European Collection of Cell Cultures (Salisbury, UK), except for SiHa and C33A, which were from the American Tissue Culture Collection, LGC Standards GmbH (Wesel, Germany). Cell culture media and supplements were obtained from Lonza Group Ltd. (Basel, Switzerland). Cells were seeded into 96-well plates (C33A 10,000/well, all others 5000/well); after overnight incubation, the test substances were added and incubated for another 72 h under cell-culturing conditions. Uncaria tomentosa extract and the alkaloids were tested in the 1–90 μg/mL and 1–30 μM ranges, respectively. Finally, 20 μL of 5 mg/mL MTT solution was added to each well and incubated for 4 h; the medium was discarded, and the precipitated formazan crystals were dissolved in DMSO for 60 min with shaking. The absorbance was determined using a microplate reader (SPECTROstar Nano, BMG Labtech GmbH). Two independent experiments were performed with five parallels for each condition. Cisplatin, a clinically used anticancer agent (Ebewe GmbH, Unterach, Austria), was included as a reference compound. Calculations were conducted using the GraphPad Prism 10.0 software (GraphPad Software Inc., San Diego, CA, USA).
Table S4 – Antiproliferative properties of Uncaria tomentosa extract, three natural products (isopteropodine, mitraphylline, and uncarine D) and the
reference agent cisplatin.
Cell line Uncaria tomentosa isopteropodine mitraphylline uncarine D [95% confidence
1: The highest applied concentration was 90 μg/mL and 30 μM for the extract and the pure natural products, respectively.
2: Inhibitions less than 20% compared to the untreated control were regarded as negligible and were not given numerically.

The test system of data set [2] is HEK293-MDR1. Briefly: Antiproliferative MTT assay. It counts as cell-based, human. As to conditions: 30 μM pure natural product, 72 h. The method, then:
as §1, with “Two independent experiments were performed with five parallels for each condition. Cisplatin, a clinically used anticancer agent (Ebewe GmbH, Unterach, Austria), was included as a reference compound. Calculations were conducted using the GraphPad Prism 10.0 software (GraphPad Software Inc., San Diego, CA, USA).” left out
On the technique in general: Formazan colour is commonly taken as a measure of viable cells.

Regarding `COC(=O)C1=CO[C@@H](C)[C@H]2CN3CC[C@]4(C(=O)Nc5ccccc54)[C@@H]3C[C@H]12` [mitraphylline], the “Cell growth inhibition at the highest concentration (% ± SEM)” value in data set [1] and in data set [2] was less than 20% in each case.

Regarding `COC(=O)C1=CO[C@@H](C)[C@@H]2CN3CC[C@@]4(C(=O)Nc5ccccc54)[C@@H]3C[C@H]12` [isopteropodine], the “Cell growth inhibition at the highest concentration (% ± SEM)” value in data set [1] and in data set [2] was less than 20% throughout.

The values above are taken from PMC11597817, “Modulation of Multispecific Transporters by Uncaria tomentosa Extract and Its Major Phytoconstituents” (Pharmaceutics, 2024).
